Data as given in patent publication US7365098B2, “N'-cyano-N-methyl-imidamide derivatives” (Bayer CropScience AG, priority 2002, dated 2008).

Experiments:
[1] = logP determination by HPLC on reversed-phase column (EEC-Directive 79/831 Annex V.A8); assay type: physicochemical; settings: reversed-phase C 18, 43° C., acidic range (0.1% aqueous phosphoric acid/acetonitrile gradient); for chromatographic logP: reversed-phase HPLC column (C 18)
Method: The logP values given in table 1 were determined in accordance with EEC-Directive 79/831 Annex V.A8 by HPLC (High Performance Liquid Chromatography) on a reversed-phase column (C 18). Temperature: 43° C. Mobile phases for the determination in the acidic range: 0.1% aqueous phosphoric acid, acetonitrile; linear gradient from 10% acetonitrile to 90% acetonitrile. Calibration was carried out using unbranched alkan-2-ones (having 3 to 16 carbon atoms) whose logP values are known (determination of the lopP values by the retention times using linear interpolation between two successive alkanones).

[2] = tested on: Meloidogyne incognita; experiment: Meloidogyne test (gall formation on lettuce roots); assay type: in vivo; settings: for nematizidal activity (formation of galls): Meloidogyne incognita egg/larvae, lettuce in sand, result in words
Method: • Solvent: 7 parts by weight of dimethylformamide • Emulsifier: 2 parts by weight of alkylaryl polyglycol ether To produce a suitable preparation of active compound, 1 part by weight of active compound is mixed with the stated amount of solvent and emulsifier, and the concentrate is diluted with water to the desired concentration. Containers are filled with sand, solution of active compound, Meloidogyne incognita egg/larvae suspension and lettuce seeds. The lettuce seeds germinate and the plants develop. On the roots, galls are formed. After the desired period of time, the nematizidal activity is the determined in percent by the formation of galls. 100% means that no galls were found; 0% means that the number of galls on the treated plants corresponds to that of the untreated control. […] The efficacy of the compounds is stated as kill rate in %.

[3] = tested on: Spodoptera frugiperda; experiment: Spodoptera frugiperda test (dipped cabbage leaves); assay type: in vivo; settings: Spodoptera frugiperda caterpillars on cabbage leaves; result in words
Method: [table] To produce a suitable preparation of active compound, 1 part by weight of active compound is mixed with the stated amount of solvent and emulsifier, and the concentrate is diluted with water to the desired concentration. Cabbage leaves (Brassica oleracea) are treated by being dipped into the preparation of active compound of the desired concentration and are populated with caterpillars of the Heerwurms (Spodoptera frugiperda) while the leaves are still moist. After the desired period of time, the kill in % is determined. 100% means that all caterpillars have been killed. 0% means that none of the caterpillars have been killed.

[4] = tested on: Phaedon cochleariae; experiment: Phaedon larvae test (dipped cabbage leaves); assay type: in vivo; settings: Phaedon cochleariae larvae on cabbage leaves; result in words
Method: • Solvent: 7 parts by weight of dimethylformamide • Emulsifier: 2 parts by weight of alkylaryl polyglycol ether To produce a suitable preparation of active compound, 1 part by weight of active compound is mixed with the stated amounts of solvent and emulsifier, and the concentrate is diluted with emulsifier-containing water to the desired concentration. Cabbage leaves (Brassica oleracea) are treated by being dipped into the preparation of active compound of the desired concentration and are populated with larvae of the mustard beetle (Phaedon cochleariae) while the leaves are still moist. After the desired period of time, the kill in % is determined. 100% means that all beetle larvae have been killed. 0% means that none of the beetle larvae have been killed.

Structure (SMILES)	chromatographic logP [1]	nematizidal activity (formation of galls) [2]	other results
CC/C(=N\C#N)NC(C)c1ccc(Cl)cc1Cl (stereo not drawn) [Example 1, N′-Cyano-N-[1-(2,4-dichlorophenyl)ethyl]propaneimidamide]	2.56		
CC/C(=N\C#N)N(C)C(C)c1ccc(Cl)cc1Cl (stereo not drawn) [Example 2, N′-Cyano-N-[1-(2,4-dichlorophenyl)ethyl]-N-methylpropaneimidamide]	2.8		melting point: 148 °C
C/C(=N\C#N)N(C)C(C)c1ccc(Cl)cc1F (stereo not drawn) [Example 3]		highly effective	
CC/C(=N\C#N)N(C)C(C)c1ccc(Cl)cc1F (stereo not drawn) [Example 4]		highly effective	
CC/C(=N\C#N)N(C)C(C)c1cc(F)c(Cl)cc1F (stereo not drawn) [Example 5]		highly effective	kill of caterpillars [3]: highly effective
C/C(=N\C#N)N(C)C(C)c1cc(F)c(Cl)cc1F (stereo not drawn) [Example 6]		highly effective	
C/C(=N\C#N)N(C)C(C)c1ccc(Cl)c(F)c1 (stereo not drawn) [Example 7]	2.4	highly effective	
CC/C(=N\C#N)N(C)C(C)c1ccc(Cl)c(F)c1 (stereo not drawn) [Example 8]	2.61	highly effective	
CC/C(=N\C#N)N(C)C(C)c1cc(F)c(Cl)cc1Cl (stereo not drawn) [Example 9]		highly effective	kill of caterpillars [3]: highly effective
CC/C(=N\C#N)N(C)[C@@H](C)c1ccc(Cl)cc1F [Example 10]	2.55	highly effective	
CC/C(=N\C#N)N(C)[C@H](C)c1ccc(Cl)cc1F [Example 11]	2.55	highly effective	
CC/C(=N\C#N)N(C)[C@@H](C)c1cc(F)c(Cl)cc1F [Example 12]	2.59	highly effective	
CC/C(=N\C#N)N(C)[C@H](C)c1cc(F)c(Cl)cc1F [Example 13]	2.59	highly effective	
C/C(=N\C#N)N(C)C(C)c1ccc(Cl)c(Cl)c1 (stereo not drawn) [Example 14]	2.68	highly effective	
CC/C(=N\C#N)N(C)C(C)c1ccc(Cl)c(Cl)c1 (stereo not drawn) [Example 15]	2.9	highly effective	
CC/C(=N\C#N)N(C)C(C)c1cc(F)c(F)cc1F (stereo not drawn) [Example 16]	2.31		
C/C(=N\C#N)N(C)C(C)c1ccc(Cl)cc1Cl (stereo not drawn) [Example 17]	2.58	highly effective	
CC/C(=N\C#N)N(C)C(C)c1ccc(Cl)c(Cl)c1Cl (stereo not drawn) [Example 18]		highly effective	

Structure (SMILES)	chromatographic logP [1]	nematizidal activity (formation of galls) [2]	other results
C/C(=N\C#N)N(C)C(C)c1cc(Cl)c(Cl)cc1Cl (stereo not drawn) [Example 19]	2.9	highly effective	kill of caterpillars [3]: highly effective; kill of beetle larvae [4]: highly effective
CC/C(=N\C#N)N(C)C(C)c1cc(Cl)c(Cl)cc1Cl (stereo not drawn) [Example 20]	3.18	highly effective	
CC/C(=N\C#N)N(C)C(C)c1ccc(Cl)c(Br)c1 (stereo not drawn) [Example 21]	2.94		
CC/C(=N\C#N)N(C)C(C)c1c(F)cccc1Cl (stereo not drawn) [Example 22]	2.19	highly effective	
CC/C(=N\C#N)N(C)C(C)c1c(F)cccc1Cl (stereo not drawn) [Example 23]		highly effective	logP [1]: logP: 2.40
C/C(=N\C#N)N(C)C(C)c1cc(Cl)ccc1Cl (stereo not drawn) [Example 24]	2.46	highly effective	
CC/C(=N\C#N)N(C)C(C)c1ccc(Br)c(Cl)c1 (stereo not drawn) [Example 25]	2.94	highly effective	
C/C(=N\C#N)N(C)C(C)c1ccc(F)c(F)c1 (stereo not drawn) [Example 26]	2.09	highly effective	
CC/C(=N\C#N)N(C)C(C)c1ccc(F)c(F)c1 (stereo not drawn) [Example 27]	2.32	highly effective	
C/C(=N\C#N)N(C)C(C)c1cccc(Cl)c1Cl (stereo not drawn) [Example 28]	2.37	highly effective	
CC/C(=N\C#N)N(C)C(C)c1cccc(Cl)c1Cl (stereo not drawn) [Example 29]	2.59	highly effective	
CC/C(=N\C#N)N(C)C(C)c1cc(F)c(Br)cc1F (stereo not drawn) [Example 30]	2.66		
CC/C(=N\C#N)N(C)C(C)c1ccc(Cl)cc1Cl (stereo not drawn) [drawing 44]			efficacy stated as kill rate in % ([2]; 20 ppm active compound): 20 ppm: 100%
CC/C(=N\C#N)NC(C)c1ccc(Cl)cc1Cl (stereo not drawn) [drawing 45, reference compound]			efficacy stated as kill rate in % ([2]; 20 ppm active compound): 20 ppm: 0%
CC/C(=N\C#N)N(C)C(C)c1ccc(Cl)c(F)c1 (stereo not drawn) [drawing 46]			efficacy stated as kill rate in % ([2]; 4 ppm active compound): 4 ppm: 100%
C/C(=N\C#N)N(C)C(C)c1ccc(Cl)cc1Cl (stereo not drawn) [drawing 48]			efficacy stated as kill rate in % ([2]; 4 ppm active compound): 4 ppm: 100%
CC/C(=N\C#N)NC(C)c1ccc(Cl)c(F)c1 (stereo not drawn) [reference compound]			efficacy stated as kill rate in % ([2]; 4 ppm active compound): 4 ppm: 0%
C/C(=N\C#N)NC(C)c1ccc(Cl)cc1Cl (stereo not drawn) [reference compound]			efficacy stated as kill rate in % ([2]; 5 ppm active compound): 5 ppm: 0%
